Values quoted from earlier work, collected in publication PMC9307173, “OX2R-selective orexin agonism is sufficient to ameliorate cataplexy and sleep/wake fragmentation without inducing drug-seeking behavior in mouse model of narcolepsy” (PLoS ONE, 2022).
“Also recorded” adds a separate entry of the source.

Tests used:
[1] = system: orexin knockout and orexin neuron-ablated mice; set-up: method as in PMID 28507129
[2] = system: addiction-like behaviors; settings: OX1R-selective antagonist
Excerpt: Orexin also activates the reward system. Orexin neurons in the LH project to the dopaminergic reward system in the ventral tegmental area (VTA), and promote the dopamine release in the nucleus accumbens and the prefrontal cortex, potentially inducing addiction-like behaviors and reinforcing effects. Orexin-mediated neural signaling also contributes to the development of addiction to drugs of abuse such as cocaine, morphine and nicotine. Anatomically, both OX1R and OX2R are present in VTA, with dopaminergic neurons predominantly expressing OX1R ...

| SMILES | wakefulness promotion (in words) ([1]; mouse models of narcolepsy) | cataplexy-like episodes (in words) ([1]; mouse models of narcolepsy / OXKO mice) | wake fragmentation (in words) ([1]; narcoleptic model mice / OXKO mice) | addiction-like behaviors induced by drugs of abuse or OXA (in words) [2] |
| --- | --- | --- | --- | --- |
| COc1ccc(-c2cccc(C(=O)N(C)C)c2)cc1S(=O)(=O)Nc1cccc(NCCNC(=O)c2ccccc2N(C)C)c1 [YNT-185] | promotes wakefulness | effectively suppressed cataplexy-like episodes; also recorded: ameliorates cataplexy-like episodes | did not appreciably ameliorate the wake fragmentation; also recorded: did not sufficiently suppress the active-phase fragmentation of wakefulness | – |
| Cc1nc2ccc(NC(=O)Nc3ccnc4cccnc34)cc2o1 [SB334867] | – | – | – | inhibited |
